Data set [1] deals with focal cerebral ischemia in male Long-Evans rats. Kind of data set: Focal cerebral ischemia in rats (right distal MCA cauterization with bilateral temporary CCA occlusion), infarct by TTC staining. It counts as in vivo, rat. The protocol: Focal cerebral ischemia was produced by cauterization of the right distal MCA (middle cerebral artery) with bilateral temporary common carotid artery occlusion in male Long-Evans rats for 90 minutes. All procedures performed on the animals were approved by the University Institutional Animal Care and Use Committee of the University of Pennsylvania. A total of 42 rats (weights: 230-340 g) obtained from Charles River were used in this study. The animals fasted overnight with free access to water prior to the surgical procedure.
Two hours prior to MCA occlusion, varying amounts (control, n=14; 5 mg/kg, n=7; 10 mg/kg, n=7; 20 mg/kg, n=7; and 40 mg/kg, n=7) of the compound, 3,4-dihydro-5-[4-(1-piperidinyl)-butoxy]-1(2H)-isoquinolinone (“DPQ”) were dissolved in dimethyl sulfoxide (DMSO) using a sonicator. A volume of 1.28 ml/kg of the resulting solution was injected intraperitoneally into […].
Focal cerebral ischemia was produced by cauterization of the distal portion of the right MCA with bilateral temporary common carotid artery (CCA) occlusion by the procedure of Chen et al., “A Model of Focal Ischemic Stroke in the Rat: Reproducible Extensive Cortical Infarction”, Stroke 17:738-43 (1986) and/or Liu et al., “Polyethylene Glycol-conjugated Superoxide Dismutase and Catalase Reduce Ischemic Brain Injury”, Am. J. Physiol. 256:H589-93 (1989), both of which are hereby incorporated by reference. […]
Two hours after MCA occlusion, the animals were given the same doses of the PARP inhibitor as in the pre-treatment. […] To avoid artifacts due to edema, the damaged area was calculated by subtracting the area of the normal tissue in the hemisphere ipsilateral to the stroke from the area of the hemisphere contralateral to the stroke, by the method of Swanson et al., “A Semiautomated Method for Measuring Brain Infarct Volume”, J. Cereb. […] The total volume of infarction was calculated by summation of the damaged volume of the brain slices.

The subject of data set [2] is C57/BL male mice. Kind of data set: Septic shock assay (LPS plus galactosamine challenge). It counts as in vivo, mouse. To be noted: 60, 20, 6 and 2 mg/kg daily IP for three days, first dose 30 minutes after challenge. The protocol: Groups of 10 C57/BL male mice weighing 18 to 20 g were administered a test compound, 1-carboxynaphthalene-1-carboxamide at the doses of 60, 20, 6 and 2 mg/kg, daily, by intraperitoneal (IP) injection for three consecutive days. Each animal was first challenged with lipopolysaccharide (LPS, from E. Coli, LD100 of 20 mg/animal IV) plus galactosamine (20 mg/animal IV). The first dose of test compound in a suitable vehicle was given 30 minutes after challenge, and the second and third doses were given 24 hours later on day 2 and day 3 respectively, with only the surviving animals receiving the second or third dose of the test compound. Mortality was recorded every 12 hours after challenge for the three-day testing period. 1-Carboxy-naphthalene-1-carboxamide provided a protection against mortality from septic shock of about 40%.

Data set [3] relates to colitis in rats. To be noted: rat, in vivo; cited from earlier work.
In data set [4] the test system is cell viability, glucose metabolism, and DNA synthesis. To be noted: cited from earlier work.
For data set [5], the system named is human fibroblast cells lines (W138 or BJ cells). Briefly: Proliferative capacity and lifespan of cells. It counts as cell-based. How it is done: At the time of subdivision, the media is aspirated, and the cells rinsed with phosphate buffer saline (PBS) and then trypsinized. The cells are counted with a Coulter counter and plated at a density of 10^5 cells per cm^2 in 6-well tissue culture plates in DMEM/199 medium supplemented with 10% bovine calf serum and varying amounts ([…]: from a 100× stock solution in DMEM/M199 medium) of a PARP inhibitor of Formula I as disclosed herein. This process is repeated every 7 days until the cell appear to stop dividing. The untreated (control) cells reach senescence and stop dividing after about 40 days in culture. […] The cells treated with 1 mM 3-AB will still divide after 60 days in culture.

The test system of data set [6] is endotoxic shock. As to conditions: in vivo; cited from earlier work.

In the case of `O=C1NCCc2c(OCCCCN3CCCCC3)cccc21` [DPQ, 3,4-dihydro-5-[4-(1-piperidinyl)-butoxy]-1(2H)-isoquinolinone], the “cross-sectional infarct area curve (FIG. 1)” value is “approximately halfway between the control and the 10 mg/kg curves” in data set [1] (5 mg/kg); “approximately halfway between the control and the 10 mg/kg curves” in data set [1] (20 mg/kg); “close to the control” in data set [1] (40 mg/kg).

With `NC(=O)C1(C(=O)O)CC=Cc2ccccc21` (centres unmarked) [1-Carboxy-naphthalene-1-carboxamide, 1-carboxynaphthalene-1-carboxamide], the “protection against mortality from septic shock” value in data set [2] is recorded as “about 40%”.

On to `NC(=O)c1cccc(N)c1` [3-aminobenzamide], for which, in data set [3], the “inflammatory response, morphology and energetic status of the distal colon” value was “reduced the inflammatory response and restored the morphology and the energetic status of the distal colon”. The additional metabolic effects entry in data set [4] was “shown to affect cell viability, glucose metabolism, and DNA synthesis”. For the same molecule, the “lifespan and proliferative capacity of the cells” value was “little or no effect” in data set [5] (10 uM); “lengthen the lifespan of the cells” in data set [5] (100 uM); “dramatically increases the lifespan and proliferative capacity of the cells” in data set [5] (1 mM).

For the molecule `NC(=O)c1cccnc1` [nicotinamide], the “delayed, NO-mediated vascular failure” value in data set [6] is “protects against delayed, NO-mediated vascular failure in endotoxic shock”.

In the case of `NC(=O)c1ccccc1` [benzamide], the additional metabolic effects result in data set [4] was “shown to affect cell viability, glucose metabolism, and DNA synthesis”.
